Tests used:
Type in all cases: in vivo, Wistar rats
[1] = system: calcium level in the serum; test: Experiment 3: effects of various sucrose fatty acid esters on serum calcium reduction; settings: for Reduction rate (%) of calcium level in the serum: intravaginal suppository, rats
Description: (§1) An intravaginal suppository was administered into the rat's vagina, and the blood was collected periodically (2, 4 and 6 hours after administration of the test preparation).
(§2) The serum was separated, and the calcium level in the serum was determined by using a kit for determination of calcium (Calcium C Test Wako; manufactured by Wako Pure Chemical Industries, Ltd.) (n=3).
In the same manner, there were prepared various sucrose fatty acid esters having the same HLB value but being combined with a different fatty acid (Table B), and four kinds of intravaginal suppositories for rats were prepared by using each 100 mg of sucrose fatty acid ester.
In the same manner as in Experiment 1, each intravaginal suppository was administered to the rat's vagina, and the blood was collected periodically 2, 4 and 6 hours after administration of intravaginal suppository), and the calcium level in the serum thereof was determined (n=4).

[2] = system: calcium level in the serum; test: Experiment 4: effects of the concentration of sucrose fatty acid ester on serum calcium reduction
Description: as §1, §2
Human calcitonin (2 mg) was precisely measured, and thereto were added citric acid (100 mg) and Ryoto-Sugar Ester S-970 (50 mg, 100 mg or 400 mg), and the mixture was mixed well.
In the same manner as in Experiment 1, each intravaginal suppository was administered to the rat's vagina, and the blood was collected periodically (2 and 4 hours after administration of intravaginal suppository), and the calcium level in the serum thereof was determined (n=3).

[3] = system: calcium level in the serum; test: Experiment 6: effects of the concentration of organic acid on serum calcium reduction; settings: for Reduction rate (%) of calcium level in the serum: pH 3.5, + S-970, intravaginal suppository 20 μg, rats
Description: as §1, §2
(§3) In the same manner as in Experiment 1, each intravaginal suppository was administered to the rat's vagina, and the blood was collected periodically (2, 4 and 6 hours after administration of intravaginal suppository), and the calcium level in the serum thereof was determined (n=3).

[4] = system: calcium level in the serum; test: Experiment 7: effects of pH of the solution in the suppository on serum calcium reduction; settings: for Reduction rate (%) of calcium level in the serum: citric acid + S-970, intravaginal 20 μg, rats
Description: as §1, §2, §3

Human calcitonin
Reduction rate (%) of calcium level in the serum ([1]; Ryoto-Sugar Ester L-595 + L-1695 3:2, HLB 9, lauric acid, + citric acid, 2 hr): 11.0%
Reduction rate (%) of calcium level in the serum ([1]; Ryoto-Sugar Ester L-595 + L-1695 3:2, HLB 9, lauric acid, + citric acid, 4 hr): 14.4%
Reduction rate (%) of calcium level in the serum ([1]; Ryoto-Sugar Ester L-595 + L-1695 3:2, HLB 9, lauric acid, + citric acid, 6 hr): 9.7%
Reduction rate (%) of calcium level in the serum ([1]; Ryoto-Sugar Ester P-070 + P-1670 4:5, HLB 9, palmitic acid, + citric acid, 2 hr): 8.2%
Reduction rate (%) of calcium level in the serum ([1]; Ryoto-Sugar Ester P-070 + P-1670 4:5, HLB 9, palmitic acid, + citric acid, 4 hr): 17.3%
Reduction rate (%) of calcium level in the serum ([1]; Ryoto-Sugar Ester P-070 + P-1670 4:5, HLB 9, palmitic acid, + citric acid, 6 hr): 13.8%
Reduction rate (%) of calcium level in the serum ([1]; Ryoto-Sugar Ester S-370 + S-1670 5:6, HLB 9, stearic acid, + citric acid, 2 hr): 6.9%
Reduction rate (%) of calcium level in the serum ([1]; Ryoto-Sugar Ester S-370 + S-1670 5:6, HLB 9, stearic acid, + citric acid, 4 hr): 15.3%
Reduction rate (%) of calcium level in the serum ([1]; Ryoto-Sugar Ester S-370 + S-1670 5:6, HLB 9, stearic acid, + citric acid, 6 hr): 12.3%
Reduction rate (%) of calcium level in the serum ([1]; Ryoto-Sugar Ester S-970 1:0 (control of Table B), HLB 9, stearic acid, + citric acid (Table 4), 2 hr): 6.3%
Reduction rate (%) of calcium level in the serum ([1]; Ryoto-Sugar Ester S-970 1:0 (control of Table B), HLB 9, stearic acid, + citric acid (Table 4), 4 hr): 11.6%
Reduction rate (%) of calcium level in the serum ([1]; Ryoto-Sugar Ester S-970 1:0 (control of Table B), HLB 9, stearic acid, + citric acid (Table 4), 6 hr): 11.0%
promotion effects on absorption of calcitonin ([1]; combination of sucrose fatty acid ester and citric acid, esters of different HLB value and fatty acid): not affected by either the HLB value of the sucrose fatty acid ester to be used or by the kinds of the fatty acids to be combined
calcium level in the blood ([2]; sucrose fatty acid ester 1, 2 or 8 w/w % with citric acid): reduced at any concentration of the sucrose fatty acid ester to be used
Reduction rate (%) of calcium level in the serum ([2]; sucrose fatty acid ester (S-970) 1 w/w %, citric acid 100 mg per 5.00 g, intravaginal suppository 20 μg, rats, 2 hr): 10.8%
calcium level in the blood ([3]; citric acid 1, 2, 5 or 10 w/w % with sucrose fatty acid ester): reduced at any concentration of citric acid to be used
Reduction rate (%) of calcium level in the serum ([3]; organic acid (citric acid) 1 w/w %, 2 hr): 14.6%
Reduction rate (%) of calcium level in the serum ([3]; organic acid (citric acid) 1 w/w %, 4 hr): 15.7%
Reduction rate (%) of calcium level in the serum ([3]; organic acid (citric acid) 1 w/w %, 6 hr): 9.2%
Reduction rate (%) of calcium level in the serum ([3]; organic acid (citric acid) 2 w/w %, 2 hr): 15.3%
Reduction rate (%) of calcium level in the serum ([3]; organic acid (citric acid) 2 w/w %, 4 hr): 18.7%
Reduction rate (%) of calcium level in the serum ([3]; organic acid (citric acid) 2 w/w %, 6 hr): 8.2%
Reduction rate (%) of calcium level in the serum ([3]; organic acid (citric acid) 5 w/w %, 2 hr): 17.9%
Reduction rate (%) of calcium level in the serum ([3]; organic acid (citric acid) 5 w/w %, 4 hr): 19.4%
Reduction rate (%) of calcium level in the serum ([3]; organic acid (citric acid) 5 w/w %, 6 hr): 7.5%
Reduction rate (%) of calcium level in the serum ([3]; organic acid (citric acid) 10 w/w %, 2 hr): 18.4%
Reduction rate (%) of calcium level in the serum ([3]; organic acid (citric acid) 10 w/w %, 4 hr): 19.0%
Reduction rate (%) of calcium level in the serum ([3]; organic acid (citric acid) 10 w/w %, 6 hr): 5.0%
promotion effect of a combination of a sucrose fatty acid ester and citric acid ([4]; pH of the solution 3.0 to 5.5): observed in the cases of pH 3.0 to 5.5, and the effects thereof were not significantly different in the cases of pH 3.0 to 4.5
Reduction rate (%) of calcium level in the serum ([4]; pH of the solution in suppository 3.0, 2 hr): 11.0%
Reduction rate (%) of calcium level in the serum ([4]; pH of the solution in suppository 3.0, 4 hr): 22.0%
Reduction rate (%) of calcium level in the serum ([4]; pH of the solution in suppository 3.0, 6 hr): 8.7%
Reduction rate (%) of calcium level in the serum ([4]; pH of the solution in suppository 3.5, 2 hr): 9.4%
Reduction rate (%) of calcium level in the serum ([4]; pH of the solution in suppository 3.5, 4 hr): 19.8%
Reduction rate (%) of calcium level in the serum ([4]; pH of the solution in suppository 3.5, 6 hr): 8.8%
Reduction rate (%) of calcium level in the serum ([4]; pH of the solution in suppository 4.0, 2 hr): 9.4%
Reduction rate (%) of calcium level in the serum ([4]; pH of the solution in suppository 4.0, 4 hr): 20.2%
Reduction rate (%) of calcium level in the serum ([4]; pH of the solution in suppository 4.0, 6 hr): 10.2%
Reduction rate (%) of calcium level in the serum ([4]; pH of the solution in suppository 4.5, 2 hr): 9.5%
Reduction rate (%) of calcium level in the serum ([4]; pH of the solution in suppository 4.5, 4 hr): 22.8%
Reduction rate (%) of calcium level in the serum ([4]; pH of the solution in suppository 4.5, 6 hr): 9.1%
Reduction rate (%) of calcium level in the serum ([4]; pH of the solution in suppository 5.0, 2 hr): 10.2%
Reduction rate (%) of calcium level in the serum ([4]; pH of the solution in suppository 5.0, 4 hr): 11.4%
Reduction rate (%) of calcium level in the serum ([4]; pH of the solution in suppository 5.0, 6 hr): 2.7%
Reduction rate (%) of calcium level in the serum ([4]; pH of the solution in suppository 5.5, 2 hr): 8.1%
Reduction rate (%) of calcium level in the serum ([4]; pH of the solution in suppository 5.5, 4 hr): 13.2%
Reduction rate (%) of calcium level in the serum ([4]; pH of the solution in suppository 5.5, 6 hr): 4.3%
